pIC50: −log10 of the molar value.
Experiments:
AXL = target: T1, AXL (Homo sapiens, UniProt P30530); experiment: TR-FRET kinase activity assay, AXL; type: biochemical; details: ATP at Km, 60 minutes
T1 sequence (P30530 26-894): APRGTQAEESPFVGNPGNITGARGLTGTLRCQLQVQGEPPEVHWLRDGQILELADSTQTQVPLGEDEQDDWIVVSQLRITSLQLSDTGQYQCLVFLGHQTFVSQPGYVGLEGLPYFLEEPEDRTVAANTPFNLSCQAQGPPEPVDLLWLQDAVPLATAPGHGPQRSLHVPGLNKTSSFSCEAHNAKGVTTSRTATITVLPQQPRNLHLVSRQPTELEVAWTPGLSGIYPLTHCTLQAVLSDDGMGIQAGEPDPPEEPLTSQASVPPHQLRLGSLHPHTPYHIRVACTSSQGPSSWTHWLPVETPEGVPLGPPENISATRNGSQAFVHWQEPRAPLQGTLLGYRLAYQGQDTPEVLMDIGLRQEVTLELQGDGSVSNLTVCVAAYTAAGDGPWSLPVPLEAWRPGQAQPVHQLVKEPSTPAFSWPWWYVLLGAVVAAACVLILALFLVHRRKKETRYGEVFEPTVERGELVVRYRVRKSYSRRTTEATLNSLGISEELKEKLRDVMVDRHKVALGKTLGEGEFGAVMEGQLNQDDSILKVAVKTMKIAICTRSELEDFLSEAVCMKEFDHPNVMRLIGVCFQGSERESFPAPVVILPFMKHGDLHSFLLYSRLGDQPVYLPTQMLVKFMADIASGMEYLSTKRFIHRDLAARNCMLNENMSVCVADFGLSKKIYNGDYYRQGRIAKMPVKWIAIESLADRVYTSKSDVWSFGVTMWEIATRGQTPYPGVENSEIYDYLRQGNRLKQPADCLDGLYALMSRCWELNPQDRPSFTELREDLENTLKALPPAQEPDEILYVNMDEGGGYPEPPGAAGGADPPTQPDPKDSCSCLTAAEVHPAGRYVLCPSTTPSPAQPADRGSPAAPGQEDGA
Method in brief: (§1)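 Enzyme, fluorescent peptide substrate and compound were mixed, and the reaction was started with ATP at each kinase's Km, in 50 mM HEPES pH 7.5, 10 mM MgCl2, 1 mM EGTA, 0.01% Brij 35, 1 mM DTT at RT. After 60 minutes EDTA quench, Eu-labelled phospho-specific antibody was added for 30 minutes, and IC50 was derived from TR-FRET signal loss.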

FLT3 = target: T2, FLT3 (Homo sapiens, UniProt P36888); experiment: TR-FRET kinase activity assay, FLT3; type: biochemical; details: ATP at Km, 60 minutes
T2 sequence (P36888 27-993): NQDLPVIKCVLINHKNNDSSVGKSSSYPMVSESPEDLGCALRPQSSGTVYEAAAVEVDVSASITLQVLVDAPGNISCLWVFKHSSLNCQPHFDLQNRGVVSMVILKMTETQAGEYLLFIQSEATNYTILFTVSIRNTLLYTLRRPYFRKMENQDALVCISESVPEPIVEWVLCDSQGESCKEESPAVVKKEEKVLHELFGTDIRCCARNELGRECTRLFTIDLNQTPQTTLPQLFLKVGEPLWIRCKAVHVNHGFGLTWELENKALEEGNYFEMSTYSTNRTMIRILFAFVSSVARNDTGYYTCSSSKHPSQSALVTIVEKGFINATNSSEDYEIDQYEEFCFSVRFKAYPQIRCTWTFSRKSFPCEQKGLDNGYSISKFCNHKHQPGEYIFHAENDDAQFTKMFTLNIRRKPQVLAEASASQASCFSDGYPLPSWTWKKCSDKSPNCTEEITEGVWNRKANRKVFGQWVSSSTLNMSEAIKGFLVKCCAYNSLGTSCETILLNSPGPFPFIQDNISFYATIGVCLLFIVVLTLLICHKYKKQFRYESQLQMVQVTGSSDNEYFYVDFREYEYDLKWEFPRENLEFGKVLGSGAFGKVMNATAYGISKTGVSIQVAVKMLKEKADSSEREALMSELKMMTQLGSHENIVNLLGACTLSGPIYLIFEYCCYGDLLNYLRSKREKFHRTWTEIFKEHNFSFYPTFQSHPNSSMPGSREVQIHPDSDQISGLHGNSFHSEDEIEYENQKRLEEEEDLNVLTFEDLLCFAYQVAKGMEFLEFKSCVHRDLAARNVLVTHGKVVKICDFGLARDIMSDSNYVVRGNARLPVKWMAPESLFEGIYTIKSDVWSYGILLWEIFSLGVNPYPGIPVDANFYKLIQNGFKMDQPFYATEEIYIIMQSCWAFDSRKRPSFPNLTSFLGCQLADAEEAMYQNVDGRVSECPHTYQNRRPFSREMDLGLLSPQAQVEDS
Method in brief: as §1

SMILES	pIC50 (AXL)	pIC50 (FLT3)
COC[C@H](C)Nc1ncc2c(-c3cnn(C(C)(C)c4ncc(C)o4)c3)cc(C3CCC(O)CC3)n2n1 (stereo partly drawn) [Compound 628]	≥ 7.00	5.00 to 6.00
[2H]C([2H])([2H])OCC(C)Nc1ncc2c(-c3ccnc(N4CCOCC4)c3)cc(C3CCC(O)CC3)n2n1 (stereo not drawn) [Compound 629]	≥ 7.00	6.00 to 7.00
COC[C@H](C)Nc1ncc2c(-c3cnn(C(C)(C)c4nnc(N5CCOCC5)o4)c3)cc(C3CCC(O)CC3)n2n1 (stereo partly drawn) [Compound 631]	≥ 7.00	5.00 to 6.00
COC[C@H](C)Nc1ncc2c(-c3ccnc(N4CC(C)(O)C4)c3)cc(C3CCC(O)CC3)n2n1 (stereo partly drawn) [Compound 632]	≥ 7.00	6.00 to 7.00

The next lines start with the values.

pIC50 (AXL)	pIC50 (FLT3)	SMILES
≥ 7.00	6.00 to 7.00	[2H]C([2H])([2H])OCC(C)Nc1ncc2c(-c3cnn(C4COC4)c3)cc(C3CCC(O)CC3)n2n1 (stereo not drawn) [Compound 630]
≥ 7.00	6.00 to 7.00	COC[C@H](C)Nc1ncc2c(-c3ccnc(N4CCC(C)(O)C4)c3)cc(C3CCC(O)CC3)n2n1 (stereo partly drawn) [Compound 633]

— US11040981B2, “Pyrrolotriazine compounds and methods of inhibiting TAM kinases” (Syros Pharmaceuticals, Inc., priority 2017, dated 2021)
